Laboratory results taken from patent US20260258032A1, “TYROSINE KINASE 2 INHIBITORS AND USES THEREOF” (BIOGEN MA INC., priority 2022, published 2026).
Counter-ions that a name gives are not always drawn.

Experiments:
[1] = tested on: Tyk2 kinase activity on STAT4; experiment: pSTAT4 cell assay (MSD, NK92 cells); format: cell-based; conditions: compounds 1 hr, stimulated 15 minutes
In short: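 Read-out: phospho-STAT in NK92 lysates, MSD format, anti-STAT4 antibodies. Cells were serum-starved, given compound for 1 hr (10 μM top, four-fold, 10 points) and IL2-stimulated (30 ng/mL, 15 min). Normalized percent activity vs log concentration, 4-parameter logistic fit gave IC50.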

[2] = target: T1, JH2 domain of human Tyk2 (Homo sapiens, UniProt P29597); experiment: JH2 biochemical assay (TR-FRET probe displacement); format: binding; conditions: JH2 biochemical assay
T1 construct: 10×His-tagged TYK2 JH2 domain (amino acid 575-876)
In short: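 A probe-displacement TR-FRET readout: compounds, tested in 3-fold, 10-point dilutions starting at […], compete with 2 nM tracer for 2 nM His-tagged JH2 (residues 575-876) detected by 0.1 nM Tb-anti-His over 60 min. IC50 comes from 4-parameter fits of normalized 520/495 nm ratios.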

T1 sequence (P29597 575-876): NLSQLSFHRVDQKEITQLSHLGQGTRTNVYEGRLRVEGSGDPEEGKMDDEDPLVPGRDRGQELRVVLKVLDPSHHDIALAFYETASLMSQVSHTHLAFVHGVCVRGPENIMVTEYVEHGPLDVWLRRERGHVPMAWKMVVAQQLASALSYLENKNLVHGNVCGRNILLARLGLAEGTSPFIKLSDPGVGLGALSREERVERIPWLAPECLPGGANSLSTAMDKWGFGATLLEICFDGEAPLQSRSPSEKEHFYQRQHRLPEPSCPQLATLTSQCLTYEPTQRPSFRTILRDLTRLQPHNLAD

CC(=O)Nc1cc2c(cn1)C1(CC1)CN2c1cc(C)cc(N2CC3CCN(C)C3C2)n1 (stereo not shown) [Example 277, N-(1′-(4-methyl-6-(1-methylhexahydropyrrolo[3,4-b]pyrrol-5(1H)-yl)pyridin-2-yl)-1′,2′-dihydrospiro[cyclopropane-1,3′-pyrrolo[3,2-c]pyridin]-6′-yl)acetamide trifluoroacetate]
IC50 [1]: ≥ 1 µM | IC50 [2]: 0.1 to 1 µM

Cc1cc(N2CC3(CC3)c3cnc(NC(=O)N(C)C)cc32)nc(C(C)(F)F)n1 [Example 278, 3-(1′-(2-(1,1-difluoroethyl)-6-methylpyrimidin-4-yl)-1′,2′-dihydrospiro[cyclopropane-1,3′-pyrrolo[3,2-c]pyridin]-6′-yl)-1,1-dimethylurea]
IC50 [1]: ≥ 1 µM | IC50 [2]: 0.1 to 1 µM

CC(=O)Nc1cc2c(cn1)C1(CC1)CN2c1cc(C)cc(C2(F)CC2)n1 [Example 279, N-(1′-(6-(1-fluorocyclopropyl)-4-methylpyridin-2-yl)-1′,2′-dihydrospiro[cyclopropane-1,3′-pyrrolo[3,2-c]pyridin]-6′-yl)acetamide]
IC50 [1]: 0.1 to 1 µM | IC50 [2]: 0.01 to 0.1 µM

CC(=O)Nc1cc2c(cn1)C1(CC1)CN2c1cc(C(C)(F)F)ncn1 [Example 280, N-(1′-(6-(1,1-difluoroethyl)pyrimidin-4-yl)-1′,2′-dihydrospiro[cyclopropane-1,3′-pyrrolo[3,2-c]pyridin]-6′-yl)acetamide]
IC50 [1]: ≥ 1 µM | IC50 [2]: 0.1 to 1 µM

CCOC(=O)C(F)(F)c1nc(C)cc(N2CC3(CC3)c3cnc(NC(C)=O)cc32)n1 [Example 281, Ethyl 2-(4-(6′-acetamidospiro[cyclopropane-1,3′-pyrrolo[3,2-c]pyridin]-1′(2′H)-yl)-6-methylpyrimidin-2-yl)-2,2-difluoroacetate]
IC50 [1]: ≥ 1 µM | IC50 [2]: 0.1 to 1 µM

CC(=O)Nc1cc2c(cn1)C1(CC1)CN2c1cc(C(C)(F)F)nc(Cl)n1 [Example 282, N-(1′-(2-chloro-6-(1,1-difluoroethyl)pyrimidin-4-yl)-1′,2′-dihydrospiro[cyclopropane-1,3′-pyrrolo[3,2-c]pyridin]-6′-yl)acetamide]
IC50 [1]: ≥ 1 µM | IC50 [2]: 0.1 to 1 µM

CC(=O)Nc1cc2c(cn1)C1(CC1)CN2c1cc(Cl)nc(C(C)(C)F)n1 [Example 283, N-(1′-(6-chloro-2-(2-fluoropropan-2-yl)pyrimidin-4-yl)-1′,2′-dihydrospiro[cyclopropane-1,3′-pyrrolo[3,2-c]pyridin]-6′-yl)acetamide]
IC50 [1]: 0.1 to 1 µM | IC50 [2]: ≤ 0.01 µM

CC(=O)Nc1cc2c(cn1)C1(CC1)CN2c1cc(NC2CC2)nc(C(C)(F)F)n1 [Example 284, N-(1′-(6-(cyclopropylamino)-2-(1,1-difluoroethyl)pyrimidin-4-yl)-1′,2′-dihydrospiro[cyclopropane-1,3′-pyrrolo[3,2-c]pyridin]-6′-yl)acetamide trifluoroacetate]
IC50 [1]: 0.01 to 0.1 µM | IC50 [2]: ≤ 0.01 µM

CC(=O)Nc1cc2c(cn1)C1(CC1)CN2c1cc(NC2COC2)nc(C(C)(F)F)n1 [Example 285, N-(1′-(2-(1,1-difluoroethyl)-6-(oxetan-3-ylamino)pyrimidin-4-yl)-1′,2′-dihydrospiro[cyclopropane-1,3′-pyrrolo[3,2-c]pyridin]-6′-yl)acetamide]
IC50 [1]: 0.01 to 0.1 µM | IC50 [2]: ≤ 0.01 µM

CC(=O)Nc1cc2c(cn1)C1(CC1)CN2c1cc(C)nc(OCC(C)(C)O)n1 [Example 286, N-(1′-(2-(2-hydroxy-2-methylpropoxy)-6-methylpyrimidin-4-yl)-1′,2′-dihydrospiro[cyclopropane-1,3′-pyrrolo[3,2-c]pyridin]-6′-yl)acetamide]
IC50 [1]: 0.1 to 1 µM | IC50 [2]: 0.01 to 0.1 µM

COCCOc1nc(N2CC3(CC3)c3cnc(NC(C)=O)cc32)cc(C(C)(F)F)n1 [Example 287, N-(1′-(6-(1,1-difluoroethyl)-2-(2-methoxyethoxy)pyrimidin-4-yl)-1′,2′-dihydrospiro[cyclopropane-1,3′-pyrrolo[3,2-c]pyridin]-6′-yl)acetamide]
IC50 [1]: 0.1 to 1 µM | IC50 [2]: ≤ 0.01 µM

CC(=O)Nc1cc2c(cn1)C1(CC1)CN2c1cc(C)nc(OCCF)n1 [Example 288, N-(1′-(2-(2-fluoroethoxy)-6-methylpyrimidin-4-yl)-1′,2′-dihydrospiro[cyclopropane-1,3′-pyrrolo[3,2-c]pyridin]-6′-yl)acetamide]
IC50 [1]: 0.1 to 1 µM | IC50 [2]: ≤ 0.01 µM

CC(=O)Nc1cc2c(cn1)C1(CC1)CN2c1cc(C)nc(C(F)(F)CO)n1 [Example 289, N-(1′-(2-(1,1-difluoro-2-hydroxyethyl)-6-methylpyrimidin-4-yl)-1′,2′-dihydrospiro[cyclopropane-1,3′-pyrrolo[3,2-c]pyridin]-6′-yl)acetamide]
IC50 [1]: 0.01 to 0.1 µM | IC50 [2]: ≤ 0.01 µM

CC(=O)Nc1cc2c(cn1)C1(CC1)CN2c1cc(C)cc(C(F)(F)CO)n1 [Example 290, N-(1′-(6-(1,1-difluoro-2-hydroxyethyl)-4-methylpyridin-2-yl)-1′,2′-dihydrospiro[cyclopropane-1,3′-pyrrolo[3,2-c]pyridin]-6′-yl)acetamide]
IC50 [1]: 0.01 to 0.1 µM | IC50 [2]: ≤ 0.01 µM

CCOC(=O)c1cc(N2CC3(CC3)c3cnc(NC(C)=O)cc32)nc(C(C)(F)F)n1 [Example 291, Ethyl 6-(6′-acetamidospiro[cyclopropane-1,3′-pyrrolo[3,2-c]pyridin]-1′(2′H)-yl)-2-(1,1-difluoroethyl)pyrimidine-4-carboxylate]
IC50 [1]: 0.1 to 1 µM | IC50 [2]: ≤ 0.01 µM

CC(=O)Nc1cc2c(cn1)C1(CC1)CN2c1cc(C(C)O)nc(C(C)(F)F)n1 (stereo not shown) [Example 293, N-(1′-(2-(1,1-difluoroethyl)-6-(1-hydroxyethyl)pyrimidin-4-yl)-1′,2′-dihydrospiro[cyclopropane-1,3′-pyrrolo[3,2-c]pyridin]-6′-yl)acetamide]
IC50 [1]: 0.1 to 1 µM | IC50 [2]: ≤ 0.01 µM

CC(=O)Nc1cc2c(cn1)C1(CC1)CN2c1cc(C(=O)O)nc(C(C)(F)F)n1 [Example 294, 6-(6′-acetamidospiro[cyclopropane-1,3′-pyrrolo[3,2-c]pyridin]-1′(2′H)-yl)-2-(1,1-difluoroethyl)pyrimidine-4-carboxylic acid]
IC50 [1]: ≥ 1 µM | IC50 [2]: 0.01 to 0.1 µM

CC(=O)Nc1cc2c(cn1)C1(CC1)CN2c1cc(C2=COCC2)nc(C(C)(F)F)n1 [Example 296, N-(1′-(2-(1,1-difluoroethyl)-6-(4,5-dihydrofuran-3-yl)pyrimidin-4-yl)-1′,2′-dihydrospiro[cyclopropane-1,3′-pyrrolo[3,2-c]pyridin]-6′-yl)acetamide trifluoroacetate]
IC50 [1]: 0.1 to 1 µM | IC50 [2]: ≤ 0.01 µM

CC(=O)Nc1cc2c(cn1)C1(CC1)CN2c1cc(C2CCOC2)nc(C(C)(F)F)n1 (stereo not shown) [Example 297, N-(1′-(2-(1,1-difluoroethyl)-6-(tetrahydrofuran-3-yl)pyrimidin-4-yl)-1′,2′-dihydrospiro[cyclopropane-1,3′-pyrrolo[3,2-c]pyridin]-6′-yl)acetamide trifluoroacetate]
IC50 [1]: 0.1 to 1 µM | IC50 [2]: ≤ 0.01 µM

CNCc1cc(N2CC3(CC3)c3cnc(NC(C)=O)cc32)nc(C(C)(F)F)n1 [Example 298, N-(1′-(2-(1,1-difluoroethyl)-6-((methylamino)methyl)pyrimidin-4-yl)-1′,2′-dihydrospiro[cyclopropane-1,3′-pyrrolo[3,2-c]pyridin]-6′-yl)acetamide]
IC50 [1]: ≥ 1 µM | IC50 [2]: 0.01 to 0.1 µM

CC(=O)Nc1cc2c(cn1)C1(CC1)CN2c1cc(CN2CCC2)nc(C(C)(F)F)n1 [Example 299, N-(1′-(6-(azetidin-1-ylmethyl)-2-(1,1-difluoroethyl)pyrimidin-4-yl)-1′,2′-dihydrospiro[cyclopropane-1,3′-pyrrolo[3,2-c]pyridin]-6′-yl)acetamide]
IC50 [1]: 0.1 to 1 µM | IC50 [2]: 0.01 to 0.1 µM

CC(=O)Nc1cc2c(cn1)C1(CC1)CN2c1cc(-c2ncn(C)n2)nc(C(C)(F)F)n1 [Example 300, N-(1′-(2-(1,1-difluoroethyl)-6-(1-methyl-1H-1,2,4-triazol-3-yl)pyrimidin-4-yl)-1′,2′-dihydrospiro[cyclopropane-1,3′-pyrrolo[3,2-c]pyridin]-6′-yl)acetamide]
IC50 [1]: 0.1 to 1 µM | IC50 [2]: ≤ 0.01 µM

CCn1ncc(-c2cc(N3CC4(CC4)c4cnc(NC(C)=O)cc43)nc(C(C)(F)F)n2)c1F [Example 301, N-(1′-(2-(1,1-difluoroethyl)-6-(1-ethyl-5-fluoro-1H-pyrazol-4-yl)pyrimidin-4-yl)-1′,2′-dihydrospiro[cyclopropane-1,3′-pyrrolo[3,2-c]pyridin]-6′-yl)acetamide]
IC50 [1]: 0.01 to 0.1 µM | IC50 [2]: ≤ 0.01 µM

CC(=O)Nc1cc2c(cn1)C1(CC1)CN2c1cc(CC#N)nc(C(C)(F)F)n1 [Example 303, N-(1′-(6-(cyanomethyl)-2-(1,1-difluoroethyl)pyrimidin-4-yl)-1′,2′-dihydrospiro[cyclopropane-1,3′-pyrrolo[3,2-c]pyridin]-6′-yl)acetamide]
IC50 [1]: ≥ 1 µM | IC50 [2]: 0.01 to 0.1 µM

CCC(F)(F)c1nc(C)cc(N2CC3(CC3)c3cnc(NC(C)=O)cc32)n1 [Example 304, N-(1′-(2-(1,1-difluoropropyl)-6-methylpyrimidin-4-yl)-1′,2′-dihydrospiro[cyclopropane-1,3′-pyrrolo[3,2-c]pyridin]-6′-yl)acetamide trifluoroacetate]
IC50 [1]: 0.01 to 0.1 µM | IC50 [2]: ≤ 0.01 µM

CC(=O)Nc1cc2c(cn1)C1(CC1)CN2c1cc(F)nc(C(C)(F)F)n1 [Example 305, N-(1′-(2-(1,1-difluoroethyl)-6-fluoropyrimidin-4-yl)-1′,2′-dihydrospiro[cyclopropane-1,3′-pyrrolo[3,2-c]pyridin]-6′-yl)acetamide trifluoroacetate]
IC50 [1]: 0.1 to 1 µM | IC50 [2]: 0.01 to 0.1 µM
